Results as given in patent US20070275961A1, “Triazolo ' 1, 5-A ! Pyrimidines and Their Use in Medicine” (VERNALIS (CAMBRIDGE) LIMITED., priority 2003, published 2007).
Read-outs that look alike come from different tables or passages of the source.

Legend:
Format in all cases: biochemical
[1] = target: CDK2 enzyme, complexed with cyclin A (Homo sapiens, UniProt P24941); experiment: CDK2 cyclin dependent kinase assay, phosphorylation of synthetic peptide […] (33P-ATP filtration); settings: 0.1 mM ATP
Procedure: (§1) The assay mixture containing the inhibitor and CDK2 enzyme, complexed with cyclin A (0.4 U/ml) was mixed together in a microtiter plate in a final volume of 50 μl and incubated for 40 min at 30° C. The assay mixture contained 0.1 mM unlabeled ATP, 0.01 μCi/μl ^33P-γ-ATP, 0.03 mM peptide, 0.1 mg/ml BSA, 7.5 mM magnesium acetate, 50 mM HEPES-NaOH, pH 7.5. The reaction was stopped by adding 50 μl of 50 mM phosphoric acid. 90 μl of the mixture were transferred to a pre-wetted 96-well Multiscreen MAPHNOB filtration plate (Millipore) and filtered on a vacuum manifold. The filter plate was washed with three successive additions of 200 μl 50 mM phosphoric acid and then with 100 μl methanol. The filtration plate was dried for 10 min at 65° C., scintillant added and phosphorylated peptide quantified in a scintillation counter (Trilux, PerkinElmer).
HEPES is N-[2-hydroxyethyl]piperazine-N′-[2-ethanesulfonic acid]. BSA is bovine serum albumin.

[2] = target: T1, PDK1 enzyme (Homo sapiens, UniProt O15530); experiment: PDK1 3'-phosphoinositide-dependent kinase assay, phosphorylation of synthetic peptide (33P-ATP filtration)
T1 sequence (O15530 1-556): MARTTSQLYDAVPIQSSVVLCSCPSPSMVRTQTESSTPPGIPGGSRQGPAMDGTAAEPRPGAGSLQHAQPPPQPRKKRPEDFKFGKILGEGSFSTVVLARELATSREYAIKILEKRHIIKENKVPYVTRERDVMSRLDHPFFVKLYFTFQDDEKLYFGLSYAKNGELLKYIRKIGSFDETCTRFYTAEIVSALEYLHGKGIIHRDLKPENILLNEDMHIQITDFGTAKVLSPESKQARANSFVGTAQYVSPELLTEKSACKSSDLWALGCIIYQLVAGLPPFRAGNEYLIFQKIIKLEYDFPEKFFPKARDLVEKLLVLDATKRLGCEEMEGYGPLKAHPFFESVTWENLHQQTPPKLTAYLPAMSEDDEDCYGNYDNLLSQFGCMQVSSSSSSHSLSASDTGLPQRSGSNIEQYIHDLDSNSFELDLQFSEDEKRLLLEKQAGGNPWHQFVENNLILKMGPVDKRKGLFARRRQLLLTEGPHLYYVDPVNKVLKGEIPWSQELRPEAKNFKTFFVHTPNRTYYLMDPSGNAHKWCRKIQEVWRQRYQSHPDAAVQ
Procedure: as §1, with “and PDK1 enzyme” for “and CDK2 enzyme, complexed with cyclin A (0.4 U/ml)”, “for 60” for “for 40”, “contained 0.01” for “contained 0.1”, “^33P-γ-ATP, 0.075” for “^33P-γ-ATP, 0.03”, “acetate, 0.05 M Tris.HCl,” for “acetate, 50 mM HEPES-NaOH,”, “pH 7.5, 0.5% 2-mercaptoethanol.” for “pH 7.5.”

[3] = target: T2, Chk1 (Homo sapiens, UniProt O14757); experiment: Chk1 kinase assay, phosphorylation of Chktide (33P-ATP filtration)
T2 sequence (O14757 1-476): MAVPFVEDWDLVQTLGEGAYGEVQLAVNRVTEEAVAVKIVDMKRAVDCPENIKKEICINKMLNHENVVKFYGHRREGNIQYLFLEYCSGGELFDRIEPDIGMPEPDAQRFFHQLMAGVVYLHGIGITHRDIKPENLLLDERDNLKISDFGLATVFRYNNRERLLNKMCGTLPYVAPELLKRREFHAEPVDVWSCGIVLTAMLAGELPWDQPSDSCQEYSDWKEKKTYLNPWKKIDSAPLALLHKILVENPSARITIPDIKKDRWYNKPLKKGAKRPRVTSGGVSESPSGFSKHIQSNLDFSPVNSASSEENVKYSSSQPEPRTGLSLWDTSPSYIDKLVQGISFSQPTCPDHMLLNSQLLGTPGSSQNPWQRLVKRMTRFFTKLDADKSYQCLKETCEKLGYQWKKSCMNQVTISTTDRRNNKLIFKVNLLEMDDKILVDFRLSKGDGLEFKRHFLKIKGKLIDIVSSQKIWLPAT
Procedure: Assays for the Chk1 kinase activity were carried out by monitoring the phosphorylation of a synthetic peptide Chktide with the amino acid sequence, […]. The assay mixture containing the inhibitor and Chk1 enzyme was mixed together in a microtiter plate in a final volume of 50 μl and incubated for 40 minutes at 30° C.
The assay mixture contained 0.01 mM unlabeled ATP, 0.5 μCi ^33P-γ-ATP, 30 μM Chktide, 0.1 mg/ml BSA, 50 mM Hepes-NaOH pH 7.5 and 11 nM GST-Chk1 enzyme. The reaction was stopped by adding 50 μl of 50 mM phosphoric acid. 90 μl of the mixture was transferred to a pre-wetted 96-well Multiscreen MAPHNOB filtration plate (Millipore) and filtered on a vacuum manifold. The filter plate was washed with three successive additions of 200 μl 50 mM phosphoric acid and then with 100 μl methanol. The filtration plate was dried for 10 min at 65° C., scintillant added and phosphorylated peptide quantified in a scintillation counter (Trilux, PerkinElmer).

[4] = Table 1, 0.01 mM ATP, read-out: PDK1 IC50
[5] = Table 1, 0.01 mM ATP, read-out: Chk1 IC50
[6] = Table 4, 0.01 mM ATP, read-out: PDK1 IC50
[7] = Table 4, 0.01 mM ATP, read-out: Chk1 IC50
[8] = Table 2, 0.01 mM ATP, read-out: PDK1 IC50
[9] = Table 2, 0.01 mM ATP, read-out: Chk1 IC50

CCN(CC)c1cc(Nc2ccc(S(N)(=O)=O)cc2)n2ncnc2n1 [Example 4, 4-(5-Diethylamino-[1,2,4]triazolo[1,5-a]pyrimidine-7-ylamino)-benzenesulfonamide]
IC50 ([1]; Table 1): 0.39 µM | IC50 [2, 4]: > 200 µM | IC50 [3, 5]: > 200 µM

CCCc1cc(OCCN(C)C)cc(-c2cc(Nc3ccc(C(N)=O)cc3)nc3ncnn23)c1 [Example 162]
IC50 [2, 6]: 7.34 µM | IC50 [3, 7]: 31.7 µM

Clc1cc(NCC2CCNCC2)n2ncnc2n1 [Example 81]
IC50 ([1]; Table 2): 177 µM | IC50 [2, 8]: > 200 µM | IC50 [3, 9]: > 200 µM

CCN(CC)c1cc(Nc2ccccc2)n2ncnc2n1 [Example 82]
IC50 ([1]; Table 2): 4.66 µM | IC50 [2, 8]: > 200 µM | IC50 [3, 9]: > 200 µM

CNS(=O)(=O)Cc1ccc(Nc2cc(-c3cccc(F)c3)n3ncnc3n2)cc1 [Example 159]
IC50 [2, 6]: 7.66 µM | IC50 [3, 7]: 22.6 µM

CCN(CC)c1cc(Nc2ccc(S(=O)(=O)c3ccccc3)cc2)n2ncnc2n1 [Example 93]
IC50 ([1]; Table 2): 0.67 µM | IC50 [2, 8]: > 200 µM | IC50 [3, 9]: > 200 µM

CCN(CC)c1cc(NCc2ccc(S(C)(=O)=O)cc2)n2ncnc2n1 [Example 103]
IC50 ([1]; Table 2): 29.8 µM | IC50 [2, 8]: > 200 µM | IC50 [3, 9]: > 200 µM

NS(=O)(=O)c1ccc(Nc2cc(N3CCCC3)nc3ncnn23)cc1 [Example 20]
IC50 ([1]; Table 1): 3.33 µM | IC50 [2, 4]: > 200 µM | IC50 [3, 5]: > 200 µM

N[C@H]1CC[C@H](Nc2cc(Nc3ccc(S(=O)(=O)c4ccccc4)cc3)n3ncnc3n2)CC1 [Example 98]
IC50 ([1]; Table 2): 0.26 µM | IC50 [2, 8]: 14.2 µM | IC50 [3, 9]: 2.19 µM

NS(=O)(=O)c1ccc(CNc2cc(OC3CCCCC3)nc3ncnn23)cc1 [Example 15]
IC50 ([1]; Table 1): 11.3 µM | IC50 [2, 4]: > 200 µM | IC50 [3, 5]: > 200 µM

NS(=O)(=O)c1ccc(Nc2cc(Oc3ccccc3)nc3ncnn23)cc1 [Example 13]
IC50 ([1]; Table 1): 20.1 µM | IC50 [2, 4]: > 200 µM | IC50 [3, 5]: > 200 µM

Cc1cccc(-c2cc(Nc3ccc(C#N)cc3)n3ncnc3n2)c1 [Example 29]
IC50 ([1]; Table 1): 57.5 µM | IC50 [2, 4]: > 200 µM | IC50 [3, 5]: > 200 µM

N#Cc1ccc(Nc2cc(Cl)nc3ncnn23)cc1 [Example 41]
IC50 ([1]; Table 1): 61.4 µM | IC50 [2, 4]: > 200 µM | IC50 [3, 5]: > 200 µM

CNc1cc(Nc2ccc(S(N)(=O)=O)cc2)n2ncnc2n1 [Example 66]
IC50 ([1]; Table 2): 4.19 µM | IC50 [2, 8]: > 200 µM | IC50 [3, 9]: > 200 µM

CN(C)S(=O)(=O)c1ccc(Nc2cc(N[C@H]3CC[C@H](N)CC3)nc3ncnn23)cc1 [Example 83]
IC50 ([1]; Table 2): 0.27 µM | IC50 [2, 8]: 43.3 µM | IC50 [3, 9]: 93.4 µM

Cc1cccc(-c2cc(Nc3ccc(N4CCOCC4)cc3)nc3ncnn23)c1 [Example 106]
IC50 ([1]; Table 3): > 200 µM | IC50 ([2]; Table 3, 0.01 mM ATP, read-out: PDK1 IC50): 23.2 µM | IC50 ([3]; Table 3, 0.01 mM ATP, read-out: Chk1 IC50): 63.3 µM

NS(=O)(=O)c1ccc(Nc2cc(N3CCOCC3)nc3ncnn23)cc1 [Example 24]
IC50 ([1]; Table 1): 15.7 µM | IC50 [2, 4]: > 200 µM | IC50 [3, 5]: > 200 µM

Clc1cc(NCc2ccccc2)n2ncnc2n1 [Example 6]
IC50 ([1]; Table 1): 85 µM | IC50 [2, 4]: > 200 µM | IC50 [3, 5]: > 200 µM

CC(C)(C)OC(=O)N1CCC(CNc2cc(Cl)nc3ncnn23)CC1 [Example 76]
IC50 ([1]; Table 2): > 200 µM | IC50 [2, 8]: > 200 µM | IC50 [3, 9]: > 200 µM

Brc1cccc(-c2cc(NCc3ccncc3)n3ncnc3n2)c1 [Example 55]
IC50 [2]: > 200 µM | IC50 [3]: > 200 µM

NS(=O)(=O)c1ccc(Nc2cc(N[C@H]3CC[C@H](N)CC3)nc3ncnn23)cc1 [Example 36]
IC50 [2, 4]: 43.3 µM | IC50 [3, 5]: 93.5 µM

CCc1cc(O)cc(-c2cc(Nc3ccc(C(=O)NCCN(CC)CC)cc3)nc3ncnn23)c1 [Example 164]
IC50 [2, 6]: 1.6 µM | IC50 [3, 7]: 0.66 µM

NC(=O)Cc1ccc(Nc2cc(-c3ccc4c(c3)OCO4)n3ncnc3n2)cc1 [Example 143]
IC50 [2, 6]: 11.4 µM | IC50 [3, 7]: 4.71 µM

CN(C)CCOc1cccc(-c2cc(Nc3ccc(C(N)=O)cc3)nc3ncnn23)c1 [Example 163]
IC50 [2, 6]: 5.44 µM | IC50 [3, 7]: 9.82 µM

Fc1cccc(-c2cc(Nc3ccc(Sc4ccccc4)cc3)nc3ncnn23)c1 [Example 155]
IC50 [2, 6]: 12.6 µM | IC50 [3, 7]: 15.1 µM

NC(=O)c1ccc(Nc2cc(-c3cccc(O)c3)n3ncnc3n2)cc1 [Example 142]
IC50 [2, 6]: 4.66 µM | IC50 [3, 7]: 3.92 µM

NS(=O)(=O)c1ccc(Nc2cc(OC3CCCCC3)nc3ncnn23)cc1 [Example 2, 7-(4-Aminosulfonylphenylamino)-5-cyclohexyloxytriazolo[1,5-a]pyrimidine]
IC50 [2, 4]: > 200 µM | IC50 [3, 5]: > 200 µM

O=S(=O)(Nc1nccs1)c1ccc(Nc2cc(-c3cccc(F)c3)n3ncnc3n2)cc1 [Example 156]
IC50 [2, 6]: 7.94 µM | IC50 [3, 7]: 13 µM

Fc1cccc(-c2cc(Nc3ccc(Oc4ccccc4)cc3)nc3ncnn23)c1 [Example 153]
IC50 [2, 6]: 12 µM | IC50 [3, 7]: 24.7 µM

CCCc1cc(OCCN)cc(-c2cc(Nc3ccc(C(N)=O)cc3)nc3ncnn23)c1 [Example 161]
IC50 [2, 6]: 1.66 µM | IC50 [3, 7]: 9.04 µM

CN(C)c1ccc(Nc2cc(-c3cccc(F)c3)n3ncnc3n2)cc1 [Example 158]
IC50 [2, 6]: 10.5 µM | IC50 [3, 7]: 6.75 µM

NS(=O)(=O)c1ccc(Nc2cc(NC3CCCCC3)nc3ncnn23)cc1 [Example 37]
IC50 [2, 4]: 64 µM | IC50 [3, 5]: > 200 µM

Fc1cccc(-c2cc(Nc3cccc(Oc4ccccc4)c3)nc3ncnn23)c1 [Example 152]
IC50 [2, 6]: 13.4 µM | IC50 [3, 7]: 32.7 µM

NC(=O)c1ccc(Nc2cc(-c3cccc(OCC4CCNCC4)c3)n3ncnc3n2)cc1 [Example 150]
IC50 [2, 6]: 14.6 µM | IC50 [3, 7]: 19.7 µM

CCOc1cccc(-c2cc(Nc3ccc(C(N)=O)cc3)nc3ncnn23)c1 [Example 144]
IC50 [2, 6]: 12.2 µM | IC50 [3, 7]: 68.3 µM

CCN(CC)c1cc(NCC2CCNCC2)n2ncnc2n1 [Example 86]
IC50 [2, 8]: > 200 µM | IC50 [3, 9]: > 200 µM

NS(=O)(=O)c1ccc(Nc2cc(OCC3CCCCC3)nc3ncnn23)cc1 [Example 51]
IC50 [2, 4]: > 200 µM | IC50 [3, 5]: > 200 µM

CCc1cc(OCCN)cc(-c2cc(Nc3ccc(C(=O)NCCN(CC)CC)cc3)nc3ncnn23)c1 [Example 167]
IC50 [2, 6]: 3.99 µM | IC50 [3, 7]: 3.39 µM

CCCc1cc(OC)cc(-c2cc(Nc3ccc(C(N)=O)cc3)nc3ncnn23)c1 [Example 160]
IC50 [2, 6]: 1.32 µM | IC50 [3, 7]: 15.8 µM
